Results from patent publication US6737383B1, “Herbicidal oxadiazolidines” (priority 1999, dated 2004).

Key:
velvetleaf = experiment: Test B pre/postemergence velvetleaf; format: in vivo, Abutilon theophrasti
Method in brief: (§1)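 Response is a visual 0-to-10 score relative to untreated plants, where 0 means no effect and 10 means complete control, taken twelve to sixteen days after application. Treatments went onto soil at planting and onto foliage of 1- to 4-leaf plants, using a surfactant-containing non-phytotoxic solvent.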

purple nutsedge = experiment: Test B pre/postemergence purple nutsedge; format: in vivo, Cyperus rotundus
Method in brief: as §1

soybean = experiment: Test B pre/postemergence soybean; format: in vivo, Glycine max
Method in brief: as §1

bamyardgrass = experiment: Test B flood test barnyardgrass; format: in vivo, Echinochloa crus-galli
Method in brief: (§2)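 Plants were grown to the 2-leaf stage before treatment with test chemical, then held in a greenhouse for twelve to sixteen days. Injury was visually rated against untreated controls on a 0–10 scale, where 0 is no effect and 10 is complete control.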

wild oat = experiment: Test B pre/postemergence wild oat; format: in vivo, Avena fatua
Method in brief: as §1

cocklebur = experiment: Test B pre/postemergence cocklebur; format: in vivo, Xanthium strumarium
Method in brief: as §1

smallflower flatsedge = experiment: Test B flood test smallflower flatsedge; format: in vivo, Cyperus difformis
Method in brief: as §2

bedstraw = experiment: Test B pre/postemergence bedstraw; format: in vivo, Galium aparine; details: Postemergence
Method in brief: as §1

sugar beet = experiment: Test B pre/postemergence sugar beet; format: in vivo, Beta vulgaris
Method in brief: as §1

crabgrass = experiment: Test B pre/postemergence crabgrass; format: in vivo, Digitaria sanguinalis
Method in brief: as §1

giant foxtail = experiment: Test B pre/postemergence giant foxtail; format: in vivo, Setaria faberii
Method in brief: as §1

pigweed = experiment: Test B pre/postemergence pigweed; format: in vivo, Amaranthus retroflexus
Method in brief: as §1

wheat = experiment: Test B pre/postemergence wheat; format: in vivo, Triticum aestivum
Method in brief: as §1

corn = experiment: Test B pre/postemergence corn; format: in vivo, Zea mays
Method in brief: as §1

rape = experiment: Test B pre/postemergence rape; format: in vivo, Brassica napus
Method in brief: as §1

surinam grass = experiment: Test B pre/postemergence surinam grass; format: in vivo, Brachiaria decumbens
Method in brief: as §1

duck salad = experiment: Test B flood test duck salad; format: in vivo, Heteranthera limosa
Method in brief: as §2

blackgrass = experiment: Test B pre/postemergence blackgrass; format: in vivo, Alopecurus myosuroides
Method in brief: as §1

rice = experiment: Test B flood test rice; format: in vivo, Oryza sativa
Method in brief: as §2

morningglory = experiment: Test B pre/postemergence morningglory; format: in vivo, Ipomoea hederacea
Method in brief: as §1

[1] = Postemergence, Rate 125 g/ha, scale 0 to 10, 0 is no effect, 10 is complete control
[2] = Postemergence, Rate 500 g/ha, scale 0 to 10, 0 is no effect, 10 is complete control
[3] = Preemergence, Rate 62 g/ha, scale of 0 to 10 where 0 is no effect and 10 is complete control
[4] = Preemergence, Rate 125 g/ha, scale 0 to 10, 0 is no effect, 10 is complete control
[5] = Preemergence, Rate 500 g/ha, scale 0 to 10, 0 is no effect, 10 is complete control
[6] = Rate 62 g/ha, Postemergence, scale 0 to 10 (0 no effect, 10 complete control)
[7] = Rate 62 g/ha, flood test species, Pre-emergence, visual evaluation after twelve to sixteen days
[8] = Rate 125 g/ha, under heading Pre-emergence, flood test species, visual evaluation after twelve to sixteen days
[9] = Rate 250 g/ha, Pre-emergence (flood test species), scale 0 to 10, 0 is no effect, 10 is complete control
[10] = Rate 500 g/ha, Pre-emergence section of Table B, 0 to 10 scale (0 no effect, 10 complete control)
[11] = Postemergence, Rate 250 g/ha, scale 0 to 10
[12] = Preemergence, Rate 250 g/ha, scale 0 to 10, 0 is no effect, 10 is complete control

For `CC(C)C(=O)Cn1c(=O)on(C(=O)N(c2ccc(Cl)cc2)C(C)C)c1=O` [Compound 487], the “Velvetleaf plant response rating” value (velvetleaf; [1]) was 0, the “Plant response rating, Velvetleaf” value (velvetleaf; [2]) was 2 and the “Plant response rating, Velvetleaf” value (velvetleaf; [3]) was 0. The “Velvetleaf plant response rating” value (velvetleaf; [4]) was 0, the “Velvetleaf plant response rating” value (velvetleaf; [5]) was 0 and the “Nutsedge plant response rating” value (purple nutsedge; [1]) was 0. For the same molecule, the “Plant response rating, Nutsedge” value (purple nutsedge; [2]) was 0, the “Plant response rating, Nutsedge” value (purple nutsedge; [3]) was 0 and the “Nutsedge plant response rating” value (purple nutsedge; [4]) was 0. The “Nutsedge plant response rating” value (purple nutsedge; [5]) was 0, the “Nutsedge plant response rating” value (purple nutsedge; [6]) was 0 and the “Soybean plant response rating” value (soybean; [1]) was 4. For the same molecule, the “Plant response rating, Soybean” value (soybean; [2]) was 5, the “Plant response rating, Soybean” value (soybean; [3]) was 0 and the “Soybean plant response rating” value (soybean; [4]) was 0. For the same molecule, the “Soybean plant response rating” value (soybean; [5]) was 0, the “Soybean plant response rating” value (soybean; [6]) was 3 and the “Plant response rating, Barnyardgrass (0 to 10 scale, 0 is no effect, 10 is complete control)” value (bamyardgrass; [7]) was 0. The “Barnyardgrass plant response rating (0 to 10 scale, 0 is no effect, 10 is complete control)” value (bamyardgrass; [8]) was 0, the “Barnyardgrass plant response rating” value (bamyardgrass; [9]) was 0 and the “Barnyardgrass plant response rating” value (bamyardgrass; [10]) was 0. For the same molecule, the “Wild oats plant response rating” value (wild oat; [1]) was 0, the “Plant response rating, Wild oats” value (wild oat; [2]) was 0 and the “Plant response rating, Wild oats” value (wild oat; [3]) was 0. The “Wild oats plant response rating” value (wild oat; [4]) was 0, the “Wild oats plant response rating” value (wild oat; [5]) was 6 and the “Wild oats plant response rating” value (wild oat; [6]) was 0. The “Cocklebur plant response rating” value (cocklebur; [1]) was 0, the “Cocklebur plant response rating” value (cocklebur; [11]) was 0 and the “Plant response rating, Cocklebur” value (cocklebur; [2]) was 0. The “Plant response rating, Cocklebur” value (cocklebur; [3]) was 0, the “Cocklebur plant response rating” value (cocklebur; [12]) was 0 and the “Cocklebur plant response rating” value (cocklebur; [5]) was 0. The “Cocklebur plant response rating” value (cocklebur; [6]) was 0, the “Plant response rating, S. Flatsedge (0 to 10 scale, 0 is no effect, 10 is complete control)” value (smallflower flatsedge; [7]) was 0 and the “S. Flatsedge plant response rating (0 to 10 scale, 0 is no effect, 10 is complete control)” value (smallflower flatsedge; [8]) was 0. For the same molecule, the “S. Flatsedge plant response rating” value (smallflower flatsedge; [9]) was 0, the “S. Flatsedge plant response rating” value (smallflower flatsedge; [10]) was 0 and the “Bedstraw plant response rating” value (bedstraw; Rate 125 g/ha, scale 0 to 10, 0 is no effect, 10 is complete control) was 2. For the same molecule, the “Bedstraw plant response rating” value (bedstraw; Rate 250 g/ha, scale 0 to 10) was 6, the “Plant response rating, Bedstraw” value (bedstraw; Rate 500 g/ha, scale 0 to 10, 0 is no effect, 10 is complete control) was 6 and the “Bedstraw plant response rating” value (bedstraw; Rate 62 g/ha, scale 0 to 10 (0 no effect, 10 complete control)) was 0. The “Sugarbeets plant response rating” value (sugar beet; [1]) was 0, the “Plant response rating, Sugarbeets” value (sugar beet; [2]) was 0 and the “Plant response rating, Sugarbeets” value (sugar beet; [3]) was 0. The “Sugarbeets plant response rating” value (sugar beet; [4]) was 0, the “Sugarbeets plant response rating” value (sugar beet; [5]) was 0 and the “Sugarbeets plant response rating” value (sugar beet; [6]) was 0. For the same molecule, the “Crabgrass plant response rating” value (crabgrass; [1]) was 3, the “Crabgrass plant response rating” value (crabgrass; [11]) was 5 and the “Plant response rating, Crabgrass” value (crabgrass; [2]) was 5. The “Plant response rating, Crabgrass” value (crabgrass; [3]) was 6, the “Crabgrass plant response rating” value (crabgrass; [4]) was 9 and the “Crabgrass plant response rating” value (crabgrass; [5]) was 10. The “Crabgrass plant response rating” value (crabgrass; [6]) was 0, the “Giant foxtail plant response rating” value (giant foxtail; [1]) was 2 and the “Plant response rating, Giant foxtail” value (giant foxtail; [2]) was 8. For the same molecule, the “Plant response rating, Giant foxtail” value (giant foxtail; [3]) was 9, the “Giant foxtail plant response rating” value (giant foxtail; [4]) was 9 and the “Giant foxtail plant response rating” value (giant foxtail; [5]) was 10. The “Giant foxtail plant response rating” value (giant foxtail; [6]) was 0, the “Redroot pigweed plant response rating” value (pigweed; [1]) was 2 and the “Plant response rating, Redroot pigweed” value (pigweed; [2]) was 3. The “Plant response rating, Redroot pigweed” value (pigweed; [3]) was 1, the “Redroot pigweed plant response rating” value (pigweed; [4]) was 8 and the “Redroot pigweed plant response rating” value (pigweed; [5]) was 10. For the same molecule, the “Redroot pigweed plant response rating” value (pigweed; [6]) was 0, the “Wheat plant response rating” value (wheat; [1]) was 0 and the “Plant response rating, Wheat” value (wheat; [2]) was 0. The “Plant response rating, Wheat” value (wheat; [3]) was 0, the “Wheat plant response rating” value (wheat; [4]) was 0 and the “Wheat plant response rating” value (wheat; [5]) was 0. For the same molecule, the “Wheat plant response rating” value (wheat; [6]) was 0, the “Corn plant response rating” value (corn; [1]) was 0 and the “Corn plant response rating” value (corn; [11]) was 0. The “Plant response rating, Corn” value (corn; [2]) was 0, the “Plant response rating, Corn” value (corn; [3]) was 0 and the “Corn plant response rating” value (corn; [4]) was 0. For the same molecule, the “Corn plant response rating” value (corn; [5]) was 0, the “Corn plant response rating” value (corn; [6]) was 0 and the “Rape plant response rating” value (rape; [1]) was 0. The “Plant response rating, Rape” value (rape; [2]) was 3, the “Plant response rating, Rape” value (rape; [3]) was 0 and the “Rape plant response rating” value (rape; [4]) was 0. The “Rape plant response rating” value (rape; [5]) was 0, the “Rape plant response rating” value (rape; [6]) was 0 and the “B. signalgrass plant response rating” value (surinam grass; [1]) was 0. For the same molecule, the “B. signalgrass plant response rating” value (surinam grass; Postemergence, Rate 250 g/ha, scale 0 to 10, 0 no effect, 10 complete control) was 0, the “Plant response rating, B. signalgrass” value (surinam grass; [2]) was 0 and the “Plant response rating, B. signalgrass” value (surinam grass; [3]) was 3. The “B. signalgrass plant response rating” value (surinam grass; [4]) was 3, the “B. signalgrass plant response rating” value (surinam grass; [12]) was 3 and the “B. signalgrass plant response rating” value (surinam grass; [5]) was 5. For the same molecule, the “B. signalgrass plant response rating” value (surinam grass; [6]) was 0, the “Plant response rating, Ducksalad (0 to 10 scale, 0 is no effect, 10 is complete control)” value (duck salad; [7]) was 0 and the “Ducksalad plant response rating (0 to 10 scale, 0 is no effect, 10 is complete control)” value (duck salad; [8]) was 0. For the same molecule, the “Ducksalad plant response rating” value (duck salad; [9]) was 0, the “Ducksalad plant response rating” value (duck salad; [10]) was 0 and the “Blackgrass plant response rating” value (blackgrass; [1]) was 0. For the same molecule, the “Blackgrass plant response rating” value (blackgrass; [11]) was 0, the “Plant response rating, Blackgrass” value (blackgrass; [2]) was 1 and the “Plant response rating, Blackgrass” value (blackgrass; [3]) was 2. For the same molecule, the “Blackgrass plant response rating” value (blackgrass; [4]) was 3, the “Blackgrass plant response rating” value (blackgrass; [12]) was 7 and the “Blackgrass plant response rating” value (blackgrass; [5]) was 9. The “Blackgrass plant response rating” value (blackgrass; [6]) was 0, the “Plant response rating, Rice (0 to 10 scale, 0 is no effect, 10 is complete control)” value (rice; [7]) was 0 and the “Rice plant response rating (0 to 10 scale, 0 is no effect, 10 is complete control)” value (rice; [8]) was 0. For the same molecule, the “Rice plant response rating” value (rice; [9]) was 0, the “Rice plant response rating” value (rice; [10]) was 0 and the “Morningglory plant response rating” value (morningglory; [1]) was 10. The “Plant response rating, Morningglory” value (morningglory; [2]) was 10, the “Plant response rating, Morningglory” value (morningglory; [3]) was 0 and the “Morningglory plant response rating” value (morningglory; [4]) was 0. The “Morningglory plant response rating” value (morningglory; [5]) was 0 and the “Morningglory plant response rating” value (morningglory; [6]) was 2.
